Laboratory results: US5574070A, “Substituted guanidines having high binding to the sigma receptor and the use thereof” (priority 1993, dated 1996)
Entries after “also recorded” stand apart in the source; their conditions may differ. Counter-ions that a name gives are not always drawn. Like-named read-outs stand apart in the source and are kept apart here.

Tested on: sigma receptor
Experiment: [3H]DTG displacement radioligand binding assay, guinea pig brain membranes
[1] = Example 25, guinea pig brain membrane homogenates, read-out: IC50 binding values
[2] = list of especially preferred compounds, read-out: IC50 (high binding to the sigma receptor)
[3] = read-out: IC50 vs [3H]DTG, Table I, guinea pig brain membranes

For “1,1-dimethyl-4-guanidine [reference compound]”, the “displacement of [3H]DTG” value was “no significant displacement”.
For `N=C(NC1CC2CCC1C2)NC1CC2CCC1C2` (racemic) [N,N'-di-((±)-endo-2-norbornyl)guanidine], the “in vitro [3H]DTG displacement activity” value was “found to possess the aforesaid in vitro [^3 H]DTG displacement activity”, the IC50 [1] was 16 nM and the IC50 [2] was 16 nM.
With `Cc1ccccc1NC(=N)N[C@@H]1C[C@@H]2CC[C@H]1C2` (relative stereo) [N-((±)-endo-2-norbornyl)-N'-(2-methylphenyl)guanidine] the IC50 [2] was 6 nM.
`CC1(C)[C@H]2CC[C@]1(C)[C@@H](NC(=N)Nc1ccccc1I)C2` (relative stereo) [N-(exo-2-isobornyl)-N'-(o-iodophenyl)guanidine] was tested, and the “in vitro [3H]DTG displacement activity” value was “found to possess the aforesaid in vitro [^3 H]DTG displacement activity”, the IC50 [1] was 18 nM and the IC50 [2] was 18 nM.
With `Cc1ccccc1NC(=N)N[C@H]1C[C@@H]2CC[C@@]1(C)C2(C)C` (relative stereo) [N-(exo-2-isobornyl)-N'-(o-tolyl)guanidine] the “in vitro [3H]DTG displacement activity” value was “found to possess the aforesaid in vitro [^3 H]DTG displacement activity”, the IC50 [1] was 25 nM and the IC50 [2] was 25 nM.
In the case of `N=C(Nc1ccccc1I)N[C@H]1C[C@@H]2CC[C@H]1C2` (relative stereo) [N-(exo-2-norbornyl)-N'-(2-iodophenyl)guanidine], the IC50 [2] is reported as 4 nM.
`C=CCN1CCC2(C)c3cc(O)ccc3CC1C2C` (single isomer, unassigned; (+)) [(+)SKF 10,047, N-allyl-normetazocine, reference compound] was tested, and the IC50 (read-out: IC50 vs. [3H]DTG) was 625 ± 88 nM.
With `CN(C)CCC=C1c2ccccc2CCc2ccccc21` [Amitriptyline, reference compound] the IC50 (read-out: IC50 vs. [3H]DTG, Table III, ± SEM, average from 2-4 separate experiments in triplicate) was 300 ± 7 nM.
Molecule `N=C1Nc2ccccc2-c2ccccc2N1` [Bridge-DPG, 2-imino-1,3H-dibenzo[d,f]-[1,3]-diazepine] has an IC50 [1] of over 10000 nM.
Molecule `CN(C)CCCN1c2ccccc2Sc2ccc(Cl)cc21` [Chlorpromazine, reference compound] has an IC50 (read-out: IC50 binding values) of 1480 ± 265 nM and an IC50 (read-out: IC50 vs. [3H]DTG) of 1480 nM.
Work on `Clc1cccc(Cl)c1N=C1NCCN1` [Clonidine, reference compound] yielded an IC50 (read-out: IC50 vs. [3H]DTG) of over 10000 nM.
`CNC(=N)NC` [DMG, N,N'-di(methyl)guanidine, reference compound] gave an IC50 [1] of over 10000 nM.
`Cc1cccc(C)c1NC(=N)Nc1c(C)cccc1C` [DXG, N,N'-di-(2,6-dimethylphenyl)guanidine] was tested, and the “in vitro [3H]DTG displacement activity” value was “found to possess the aforesaid in vitro [^3 H]DTG displacement activity”, the IC50 [1] was 90 ± 18 nM and the IC50 [2] was 90 nM. The IC50 [3] was 90 ± 18 nM.
For `Cc1cc(Br)ccc1NC(=N)Nc1ccc(Br)cc1C` [Example 4-Br--DTG, N,N'-Di-(4-bromo-2-methylphenyl)guanidine], the “in vitro [3H]DTG displacement activity” value was “found to possess the aforesaid in vitro [^3 H]DTG displacement activity”, the IC50 [1] was 37 nM and the IC50 [2] was 37 nM. For the same molecule, the IC50 [3] was 37 ± 3 nM.
For `O=C(CCCN1CCC(O)(c2ccc(Cl)cc2)CC1)c1ccc(F)cc1` [Haloperidol, reference compound], the “affinity for / displacement at the [3H]DTG binding site” value was “all specific binding is displaceable by haloperidol; also recorded: highest displacement potency of all drugs tested”.
In the case of `CN(C)CCCN1c2ccccc2CCc2ccccc21` [Imipramine, reference compound], the IC50 (read-out: IC50 vs. [3H]DTG) is reported as 520 ± 14 nM.
With `CCc1cccc(N2CCN(c3cccc(CC)c3)C2=N)c1` [N,N'-Bis (3-ethylphenyl)-2-imino-imidazolidine] the IC50 [2] was 70 nM.
For `N=C(NC1CCCCC1)NC1CCCCC1` [N,N'-di(cyclohexyl)guanidine], the “in vitro [3H]DTG displacement activity” value was “found to possess the aforesaid in vitro [^3 H]DTG displacement activity”, the IC50 [1] was 71 nM and the IC50 [2] was 71 nM. The IC50 [3] was 71 ± 7 nM.
In the case of `Cc1cc(I)ccc1NC(=N)Nc1ccc(I)cc1C` [N,N'-di-(2-methyl-4-iodophenyl)guanidine], the “in vitro [3H]DTG displacement activity” value is reported as “found to possess the aforesaid in vitro [^3 H]DTG displacement activity”.
For `N=C(NC1CC2CCC1C2)NC1CC2CCC1C2` (stereo not drawn) [N,N'-di-(exo-2-norbornyl)guanidine], the “in vitro [3H]DTG displacement activity” value was “found to possess the aforesaid in vitro [^3 H]DTG displacement activity”, the IC50 [1] was 22 nM and the IC50 [2] was 22 nM.
In the case of `CCCCNC(=N)NCCCC` [N,N'-di-n-butyl-guanidine], the “in vitro [3H]DTG displacement activity” value is reported as “found to possess the aforesaid in vitro [^3 H]DTG displacement activity” and the IC50 [3] is reported as 750 ± 33 nM.
In the case of `N=C(NCc1ccccc1)NCc1ccccc1` [N,N'-dibenzylguanidine], the “in vitro [3H]DTG displacement activity” value is reported as “found to possess the aforesaid in vitro [^3 H]DTG displacement activity”, the IC50 [1] is reported as 90 nM and the IC50 [2] is reported as 90 nM.
`N=C(Nc1ccccc1[N+](=O)[O-])NC12CC3CC(CC(C3)C1)C2` [N-(1-adamantyl)-N'-(o-nitrophenyl)guanidine] was tested, and the “in vitro [3H]DTG displacement activity” value was “found to possess the aforesaid in vitro [^3 H]DTG displacement activity”, the IC50 [1] was 30 nM and the IC50 [2] was 30 nM.
For `Cc1ccccc1NC(=N)Nc1c(C)cccc1C` [N-(2,6-dimethylphenyl)-N'-(2-methylphenyl)-guanidine], the “in vitro [3H]DTG displacement activity” value was “found to possess the aforesaid in vitro [^3 H]DTG displacement activity”, the IC50 [1] was 70 nM and the IC50 [2] was 70 nM. For the same molecule, the IC50 [3] was 70 ± 3 nM.
With `Cc1ccccc1NC(=N)Nc1ccc(N=[N+]=[N-])cc1C` [N-(2-Methyl-4-azido-phenyl)-N'-(2-methylphenyl)guanidine] the “in vitro [3H]DTG displacement activity” value was “found to possess the aforesaid in vitro [^3 H]DTG displacement activity”, the IC50 [2] was 20 nM and the IC50 [3] was 20 ± 1 nM.
For `Cc1ccccc1NC(=N)Nc1ccc([N+](=O)[O-])cc1C` [N-(2-Methyl-4-nitrophenyl)-N'-(2-methyl-phenyl)guanidine], the “in vitro [3H]DTG displacement activity” value was “found to possess the aforesaid in vitro [^3 H]DTG displacement activity”, the IC50 [1] was 37 nM and the IC50 [2] was 37 nM. The IC50 [3] was 37 ± 5 nM.
`Cc1ccccc1NC(=N)Nc1ccccc1I` [N-(2-iodophenyl)-N'-(2-methylphenyl)-guanidine] was tested, and the “in vitro [3H]DTG displacement activity” value was “found to possess the aforesaid in vitro [^3 H]DTG displacement activity”, the IC50 [1] was 21 nM and the IC50 [2] was 21 nM. It also gave an IC50 [3] of 21 ± 1 nM.
`CC12CC3CC(C)(C1)CC(NC(=N)Nc1ccccc1I)(C3)C2` [N-(3,5-dimethyl-1-adamantanyl)-N'-(o-iodophenyl)guanidine] was tested, and the “in vitro [3H]DTG displacement activity” value was “found to possess the aforesaid in vitro [^3 H]DTG displacement activity”, the IC50 [1] was 16 nM and the IC50 [2] was 16 nM.
For `Cc1ccccc1NC(=N)NC12CC3CC(C)(CC(C)(C3)C1)C2` [N-(3,5-dimethyladamantan-1-yl)-N'-(o-tolyl)guanidine], the “in vitro [3H]DTG displacement activity” value was “found to possess the aforesaid in vitro [^3 H]DTG displacement activity”, the IC50 [1] was 15 nM and the IC50 [2] was 15 nM.
`Cc1ccccc1N(C)C(=N)NC12CC3CC(CC(C3)C1)C2` [N-(Adamantan-1-yl)-N'-(2-methylphenyl)-N'-methyl-guanidine] gave an IC50 [2] of 22.6 nM and an IC50 (read-out: IC50 vs [3H]DTG, Table II, ± s.e.m. (n)) of 22.6 nM.
In the case of `CC(C)c1ccccc1NC(=N)NC12CC3CC(CC(C3)C1)C2` [N-(adamant-1-yl)-N'-(o-isopropylphenyl)guanidine], the “in vitro [3H]DTG displacement activity” value is reported as “found to possess the aforesaid in vitro [^3 H]DTG displacement activity”, the IC50 [1] is reported as 24 nM and the IC50 [2] is reported as 24 nM.
`Cc1cc(Br)ccc1NC(=N)NC12CC3CC(CC(C3)C1)C2` [N-(adamant-1-yl)-N'-(p-bromo-o-tolyl)guanidine] was tested, and the “in vitro [3H]DTG displacement activity” value was “found to possess the aforesaid in vitro [^3 H]DTG displacement activity” and the IC50 [2] was 2.7 nM.
`N=C(Nc1ccccc1I)NC1C2CC3CC(C2)CC1C3` (centres unmarked) [N-(adamant-2-yl)-N'-(2-iodophenyl)guanidine] was tested, and the IC50 [1] was 5.2 nM and the IC50 [2] was 3.5 nM.
For `Cc1ccccc1NC(=N)NC1C2CC3CC(C2)CC1C3` (centres unmarked) [N-(adamant-2-yl)-N'-(2-methylphenyl)guanidine], the IC50 [2] was 7 nM.
For `N=C(Nc1ccc(I)cc1)NC1C2CC3CC(C2)CC1C3` (centres unmarked) [N-(adamant-2-yl)-N'-(p-iodophenyl)guanidine], the “in vitro [3H]DTG displacement activity” value was “found to possess the aforesaid in vitro [^3 H]DTG displacement activity” and the IC50 [1] was 2.7 nM.
With `CC(C)(C)NC(=N)Nc1ccccc1I` [N-(o-iodophenyl)-N'-(t-butyl)guanidine] the “in vitro [3H]DTG displacement activity” value was “found to possess the aforesaid in vitro [^3 H]DTG displacement activity”, the IC50 [1] was 20 nM and the IC50 [2] was 20 nM.
`Cc1ccccc1NC(=N)Nc1ccc(N)cc1C` [NH2 --DTG, N-(2-Methyl-4-aminophenyl)-N'-(2-methylphenyl)-guanidine hydrochloride] showed an IC50 [1] of 280 ± 20 nM and an IC50 [3] of 280 ± 14 nM.
In the case of `CNCCC=C1c2ccccc2CCc2ccccc21` [Nortriptyline, reference compound], the IC50 (read-out: IC50 vs. [3H]DTG) is reported as 2000 nM.
`CN(C)CCCN1c2ccccc2Sc2ccc(C(F)(F)F)cc21` [Trifluopromazine, reference compound] was tested, and the IC50 (read-out: IC50 vs. [3H]DTG) was 605 ± 67 nM.
With `CN1CCc2cccc3c2[C@H]1Cc1ccc(O)c(O)c1-3` [apomorphine, reference compound] the “displacement of [3H]DTG” value (10 uM) was “no significant displacement”.
With `N=C(N)NCCC(=O)O` [beta-guanidino propionic acid, reference compound] the “displacement of [3H]DTG” value (10 uM) was “no significant displacement”.
In the case of `CN1CCc2cc3c(cc2[C@H]1[C@@H]1OC(=O)c2c1ccc1c2OCO1)OCO3` [bicuculline, reference compound], the “displacement of [3H]DTG” value (10 uM) is reported as “no significant displacement”.
In the case of `CN/C(=N/CCSCc1nc[nH]c1C)NC#N` [cimetidine, reference compound], the “displacement of [3H]DTG” value is reported as “no significant displacement”.
`CN(CC(=O)O)C(=N)N` [creatine, reference compound] was tested, and the “displacement of [3H]DTG” value (10 uM) was “no significant displacement”.
With `CN1CC(=O)NC1=N` [creatinine, reference compound] the “displacement of [3H]DTG” value (10 uM) was “no significant displacement”.
For `N=C(N)NCCCC(=O)O` [gamma-guanidino butyric acid, reference compound], the “displacement of [3H]DTG” value (10 uM) was “no significant displacement”.
For `N=C(N)NCC(=O)O` [guanidino acetic acid, reference compound], the “displacement of [3H]DTG” value (10 uM) was “no significant displacement”.
With `C[N+](C)(C)CCCCCC[N+](C)(C)C` [hexamethonium, reference compound] the “displacement of [3H]DTG” value (10 uM) was “no significant displacement”.
